Consider 34 compounds from patent US7291621B2, “Substituted biaryl amides C5a receptor modulators” (Neurogen Corporation, priority 2002, dated 2007).

The assay concerns the target T1, C5a receptor (Homo sapiens, UniProt P21730).
T1 construct: endogenous in cells; host or cells: U937 cells differentiated with 1 mM dibutyryl cAMP
T1 sequence (P21730 1-350): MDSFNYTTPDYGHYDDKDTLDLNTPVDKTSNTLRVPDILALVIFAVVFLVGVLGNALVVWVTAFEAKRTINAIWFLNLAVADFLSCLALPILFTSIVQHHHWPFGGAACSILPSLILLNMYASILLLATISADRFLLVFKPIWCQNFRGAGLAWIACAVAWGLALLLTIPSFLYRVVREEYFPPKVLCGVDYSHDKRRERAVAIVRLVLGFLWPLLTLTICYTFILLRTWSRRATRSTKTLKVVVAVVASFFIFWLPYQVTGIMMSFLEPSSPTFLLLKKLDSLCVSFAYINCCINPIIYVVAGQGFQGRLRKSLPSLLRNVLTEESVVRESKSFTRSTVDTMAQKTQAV
Description: standard assay of C5a receptor mediated calcium mobilization. Particulars: Table I; asterisk = tested in C5a receptor mediated calcium mobilization assay; read-out: Ca2+ Mob. The format is cell-based. The procedure: U937 cells are grown in differentiation media (1 mM dibutyrl cAMP in RPMI 1640 medium containing 10% fetal bovine serum) for 48 hrs at 37° C. then reseeded onto 96-well plates suitable for use in a FLIPR™ Plate Reader (Molecular Devices Corp., Sunnyvale Calif.). Cells are grown an additional 24 hours (to 70-90% confluence) before the assay. The cells are then washed once with Krebs Ringer solution. FLUO-3 calcium sensitive dye (Molecular Probes, Inc. Eugene, Oreg.) is added to 10 μg/mL and incubated with the cells at room temperature for 1 to 2 hours. The 96 well plates are then washed to remove excess dye. Fluorescence responses, measured by excitation at 480 nm and emission at 530 nm, are monitored upon the addition of human C5a to the cells to a final concentration of 0.01-30.0 nM, using the FLIPR™ device (Molecular Devices).
The calcium mobilization assay described above may be readily adapted for identifying test compounds that have agonist or antagonist activity at the human C5a receptor.
For example, in order to identify antagonist compounds, differentiated U937 cells are washed and incubated with Fluo-3 dye as described above. One hour prior to measuring the fluorescence signal, a subset of the cells is incubated with 1 μM of at least one compound to be tested. The fluorescence response upon the subsequent addition of 0.3 nM (final concentration) human recombinant C5a is monitored using the FLIPR™ plate reader. Antagonist compounds elicit at least a 2-fold decrease in the fluorescence response relative to that measured in the presence of human C5a alone. Preferred antagonist compounds elicit at least a 5-fold, preferably at least a 10-fold, and more preferably at least a 20-fold decrease in the fluorescence response relative to that measured in the presence of human C5a alone.

Each structure is given as a SMILES string. Some results are limits rather than exact numbers.

On to `COc1ccc(-c2ccccc2)c(C(=O)N(Cc2ccccc2F)C2Cc3ccccc3C2)c1` [compound 108, N-(indan-2-yl)-N-(2-fluorobenzyl)-4-methoxy-1,1′-biphenyl-2-carboxamide], for which the Ki is < 1000 nM.
With `COc1ccc(-c2ccccc2)c(C(=O)N(Cc2cccc(F)c2)C2Cc3ccccc3C2)c1` [compound 109, N-(indan-2-yl)-N-(3-fluorobenzyl)-4-methoxy-1,1′-biphenyl-2-carboxamide], the Ki is < 1000 nM.
As for `COc1ccc(-c2ccccc2)c(C(=O)N(Cc2ccc(F)cc2)C2Cc3ccccc3C2)c1` [compound 110, N-(indan-2-yl)-N-(4-fluorobenzyl)-4-methoxy-1,1′-biphenyl-2-carboxamide], the Ki was < 1000 nM.
Regarding `COc1ccc(-c2ccccc2)c(C(=O)N(Cc2ccc(F)c(F)c2)C2Cc3ccccc3C2)c1` [compound 111, N-(3,4-difluorobenzyl)-N-(indan-2-yl)-4-methoxy-1,1′-biphenyl-2-carboxamide], the Ki is < 1000 nM.
The result for `O=C(c1c(F)cccc1-c1ccccc1)N(Cc1ccccc1)C1Cc2ccccc2C1` [compound 112, N-benzyl-N-(indan-2-yl)-3-fluoro-1,1′-biphenyl-2-carboxamide] reads < 1000 nM; that for `Cc1cccc(-c2ccccc2)c1C(=O)N(Cc1ccccc1)C1Cc2ccccc2C1` [compound 113, N-benzyl-N-(indan-2-yl)-3-methyl-1,1′-biphenyl-2-carboxamide], < 1000 nM; that for `Cc1ccc(-c2cccc(F)c2C(=O)N(Cc2ccccc2)C2Cc3ccccc3C2)s1` [compound 114, N-benzyl-N-(indan-2-yl)-2-fluoro-6-(5-methylthien-2-yl)benzamide], < 1000 nM.
`Cc1ccc(-c2cccc(C)c2C(=O)N(Cc2ccccc2)C2Cc3ccccc3C2)s1` [compound 115, N-benzyl-N-(indan-2-yl)-2-methyl-6-(5-methylthien-2-yl)benzamide]: the Ki is < 1000 nM.
The result for `Cc1ccc(-c2ccccc2)c(C(=O)N(Cc2ccccc2)C2Cc3ccccc3C2)c1` [compound 116, N-benzyl-N-(indan-2-yl)-4-methyl-1,1′-biphenyl-2-carboxamide] reads < 1000 nM; that for `O=C(c1cc(Cl)ccc1-c1ccccc1)N(Cc1ccccc1)C1Cc2ccccc2C1` [compound 117, N-benzyl-4-chloro-N-(indan-2-yl)-1,1′-biphenyl-2-carboxamide], < 1000 nM.
Then `Cc1ccc(-c2ccsc2)c(C(=O)N(Cc2ccccc2)C2Cc3ccccc3C2)c1` [compound 118, N-benzyl-N-(indan-2-yl)-5-methyl-2-thien-3-ylbenzamide], with < 1000 nM.
As to `O=C(c1cc(Cl)ccc1-c1ccsc1)N(Cc1ccccc1)C1Cc2ccccc2C1` [compound 119, N-benzyl-5-chloro-N-(indan-2-yl)-2-thien-3-ylbenzamide], the Ki is < 1000 nM.
The result for `Cc1ccccc1CN(C(=O)c1c(C)cccc1-c1ccccc1)C1Cc2ccccc2C1` [compound 120, N-(indan-2-yl)-3-methyl-N-(2-methylbenzyl)-1,1′-biphenyl-2-carboxamide] reads < 1000 nM.
Regarding `Cc1cccc(CN(C(=O)c2c(C)cccc2-c2ccccc2)C2Cc3ccccc3C2)c1` [compound 121, N-(indan-2-yl)-3-methyl-N-(3-methylbenzyl)-1,1′-biphenyl-2-carboxamide], the Ki is < 1000 nM.
As to `Cc1ccc(CN(C(=O)c2c(C)cccc2-c2ccccc2)C2Cc3ccccc3C2)cc1` [compound 122, N-(indan-2-yl)-3-methyl-N-(4-methylbenzyl)-1,1′-biphenyl-2-carboxamide], the Ki is < 1000 nM.
Then `Cc1cccc(-c2ccccc2)c1C(=O)N(Cc1ccccc1F)C1Cc2ccccc2C1` [compound 123, N-(indan-2-yl)-N-(2-fluorobenzyl)-3-methyl-1,1′-biphenyl-2-carboxamide], with < 1000 nM; and `Cc1cccc(-c2ccccc2)c1C(=O)N(Cc1cccc(F)c1)C1Cc2ccccc2C1` [compound 124, N-(indan-2-yl)-N-(3-fluorobenzyl)-3-methyl-1,1′-biphenyl-2-carboxamide], with < 1000 nM.
For `Cc1cccc(-c2ccccc2)c1C(=O)N(Cc1ccc(F)cc1)C1Cc2ccccc2C1` [compound 125, N-(indan-2-yl)-N-(4-fluorobenzyl)-3-methyl-1,1′-biphenyl-2-carboxamide], the Ki was < 1000 nM.
Then `Cc1cccc(-c2ccccc2)c1C(=O)N(Cc1ccc(F)c(F)c1)C1Cc2ccccc2C1` [compound 126, N-(3,4-difluorobenzyl)-N-(indan-2-yl)-3-methyl-1,1′-biphenyl-2-carboxamide], with < 1000 nM; and `COc1cccc(CN(C(=O)c2c(C)cccc2-c2ccccc2)C2Cc3ccccc3C2)c1` [compound 127, N-(indan-2-yl)-N-(3-methoxybenzyl)-3-methyl-1,1′-biphenyl-2-carboxamide], with < 1000 nM.
The result for `COc1ccc(CN(C(=O)c2c(C)cccc2-c2ccccc2)C2Cc3ccccc3C2)cc1` [compound 128, N-(indan-2-yl)-N-(4-methoxybenzyl)-3-methyl-1,1′-biphenyl-2-carboxamide] reads < 1000 nM; that for `Cc1cccc(-c2ccccc2)c1C(=O)N(Cc1ccc2c(c1)OCO2)C1Cc2ccccc2C1` [compound 129, N-(1,3-benzodioxol-5-ylmethyl)-N-(indan-2-yl)-3-methyl-1,1′-biphenyl-2-carboxamide], < 1000 nM; that for `Cc1cccc(-c2ccccc2)c1C(=O)N(CCc1ccccc1)C1Cc2ccccc2C1` [compound 130, N-(indan-2-yl)-3-methyl-N-(2-phenylethyl)-1,1′-biphenyl-2-carboxamide], < 1000 nM.
With `Cc1ccccc1CN(C(=O)c1cc(Cl)ccc1-c1ccccc1)C1Cc2ccccc2C1` [compound 131, 4-chloro-N-(indan-2-yl)-N-(2-methylbenzyl)-1,1′-biphenyl-2-carboxamide], the Ki is < 1000 nM.
As for `Cc1cccc(CN(C(=O)c2cc(Cl)ccc2-c2ccccc2)C2Cc3ccccc3C2)c1` [compound 132, 4-chloro-N-(indan-2-yl)-N-(3-methylbenzyl)-1,1′-biphenyl-2-carboxamide], the Ki was < 1000 nM.
As to `O=C(c1cc(Cl)ccc1-c1ccccc1)N(Cc1ccccc1F)C1Cc2ccccc2C1` [compound 134, 4-chloro-N-(indan-2-yl)-N-(2-fluorobenzyl)-1,1′-biphenyl-2-carboxamide], the Ki was < 1000 nM.
Then `O=C(c1cc(Cl)ccc1-c1ccccc1)N(Cc1cccc(F)c1)C1Cc2ccccc2C1` [compound 135, 4-chloro-N-(indan-2-yl)-N-(3-fluorobenzyl)-1,1′-biphenyl-2-carboxamide], with < 1000 nM; and `O=C(c1cc(Cl)ccc1-c1ccccc1)N(Cc1ccc(F)cc1)C1Cc2ccccc2C1` [compound 136, 4-chloro-N-(indan-2-yl)-N-(4-fluorobenzyl)-1,1′-biphenyl-2-carboxamide], with < 1000 nM; and `O=C(c1cc(Cl)ccc1-c1ccccc1)N(Cc1ccc(F)c(F)c1)C1Cc2ccccc2C1` [compound 137, 4-chloro-N-(3,4-difluorobenzyl)-N-(indan-2-yl)-1,1′-biphenyl-2-carboxamide], with < 1000 nM.
The result for `COc1ccc(CN(C(=O)c2cc(Cl)ccc2-c2ccccc2)C2Cc3ccccc3C2)cc1` [compound 138, 4-chloro-N-(indan-2-yl)-N-(4-methoxybenzyl)-1,1′-biphenyl-2-carboxamide] reads < 1000 nM; that for `O=C(c1cc(Cl)ccc1-c1ccccc1)N(Cc1ccc2c(c1)OCO2)C1Cc2ccccc2C1` [compound 139, N-(1,3-benzodioxol-5-ylmethyl)-4-chloro-N-(indan-2-yl)-1,1′-biphenyl-2-carboxamide], < 1000 nM; that for `COc1cccc(CN(C(=O)c2cc(Cl)ccc2-c2ccccc2)C2Cc3ccccc3C2)c1` [compound 140, 4-chloro-N-(indan-2-yl)-N-(3-methoxybenzyl)-1,1′-biphenyl-2-carboxamide], < 1000 nM.
Then `O=C(c1cc(Cl)ccc1-c1ccccc1)N(CCc1ccccc1)C1Cc2ccccc2C1` [compound 141, 4-chloro-N-(indan-2-yl)-N-(2-phenylethyl)-1,1′-biphenyl-2-carboxamide], with < 1000 nM; and `Cc1cc(CN(Cc2ccccc2)C(=O)c2cc(Cl)ccc2-c2ccccc2)cc(C)c1O` [compound 142, N-benzyl-4-chloro-N-(4-hydroxy-3,5-dimethylbenzyl)-1,1′-biphenyl-2-carboxamide], with < 1000 nM.
